According to ChEMBL document CHEMBL3885881, “DrugMatrix”:

Organism: Rattus norvegicus
Experiment: DrugMatrix - Regimen: Daily Repeat
Format: toxicity, organism-based, Sprague-Dawley
Design: regimen Daily Repeat, gender Male, age 6-8 weeks
Conditions: in vivo, po, route oral GAVAGE, vehicle 100 % WATER; for ABSOLUTE BASOPHIL / ABSOLUTE EOSINOPHIL / ABSOLUTE LYMPHOCYTE / ABSOLUTE MONOCYTE / ABSOLUTE SEGMENTED NEUTROPHIL / BASOPHIL / EOSINOPHIL / ERYTHROCYTE COUNT / HEMATOCRIT / HEMOGLOBIN / LEUKOCYTE COUNT / LYMPHOCYTE / MEAN CORPUSCULAR HEMOGLOBIN / MEAN CORPUSCULAR HEMOGLOBIN CONCENTRATION / MEAN CORPUSCULAR VOLUME / MONOCYTE / NEUTROPHIL / NUCLEATED RED BLOOD CELLS / PLATELET COUNT: tissue Blood; for ALANINE AMINOTRANSFERASE / ALBUMIN / ALKALINE PHOSPHATASE / ASPARTATE AMINOTRANSFERASE / BLOOD UREA NITROGEN / CARBON DIOXIDE / CHLORIDE / CHOLESTEROL / CREATINE PHOSPHOKINASE / CREATININE / GLUCOSE / LACTATE DEHYDROGENASE / LIPASE / PHOSPHORUS / POTASSIUM / SODIUM / TOTAL BILIRUBIN / TOTAL PROTEIN / URIC ACID: tissue Plasma
[1] = 0 mg/kg, 72 h, dose level Control, time 3 day
[2] = 0 mg/kg, 120 h, dose level Control, time 5 day
[3] = 25 mg/kg, 72 h, dose level High, time 3 day

O=P1(N(CCCl)CCCl)NCCCO1 (centres undefined) [CYCLOPHOSPHAMIDE ANHYDROUS]
ABSOLUTE BASOPHIL [1]: 0 CELLS/uL
ABSOLUTE EOSINOPHIL [1]: 32.5 CELLS/uL
ABSOLUTE LYMPHOCYTE [1]: 9305.83 CELLS/uL
ABSOLUTE MONOCYTE [1]: 43.83 CELLS/uL
ABSOLUTE SEGMENTED NEUTROPHIL [1]: 817.83 CELLS/uL
BASOPHIL [1]: 0%
EOSINOPHIL [1]: 0.33%
ERYTHROCYTE COUNT [1]: 5.38 x10E6/uL
HEMATOCRIT [1]: 33.63%
HEMOGLOBIN [1]: 13.17 G/DL
LEUKOCYTE COUNT [1]: 10.2 x10E3/uL
LYMPHOCYTE [1]: 91.17%
MEAN CORPUSCULAR HEMOGLOBIN [1]: 24.5 pg
MEAN CORPUSCULAR HEMOGLOBIN CONCENTRATION [1]: 39.13 G/DL
MEAN CORPUSCULAR VOLUME [1]: 62.53 fL
MONOCYTE [1]: 0.5%
NEUTROPHIL [1]: 8%
NUCLEATED RED BLOOD CELLS [1]: 0.17 /100WBC
PLATELET COUNT [1]: 858 x10E3/uL
ALANINE AMINOTRANSFERASE [1]: 55.67 u/L
ALBUMIN [1]: 4.07 G/DL
ALKALINE PHOSPHATASE [1]: 337 u/L
ASPARTATE AMINOTRANSFERASE [1]: 84 u/L
BLOOD UREA NITROGEN [1]: 13.17 mg/dL
CARBON DIOXIDE [1]: 34.17 mmol/L
CHLORIDE [1]: 99.33 MEQ/L
CHOLESTEROL [1]: 78.83 mg/dL
CREATINE PHOSPHOKINASE [1]: 576.83 u/L
CREATININE [1]: 0.17 mg/dL
GLUCOSE [1]: 152.67 mg/dL
LACTATE DEHYDROGENASE [1]: 147.83 u/L
LIPASE [1]: 9.5 u/L
PHOSPHORUS [1]: 10.78 mg/dL
POTASSIUM [1]: 6.34 MEQ/L
SODIUM [1]: 144.12 MEQ/L
TOTAL BILIRUBIN [1]: 0.18 mg/dL
TOTAL PROTEIN [1]: 6.08 G/DL
URIC ACID [1]: 0.65 mg/dL
ABSOLUTE BASOPHIL [2]: 0 CELLS/uL
ABSOLUTE EOSINOPHIL [2]: 31.17 CELLS/uL
ABSOLUTE LYMPHOCYTE [2]: 7918.33 CELLS/uL
ABSOLUTE MONOCYTE [2]: 58.33 CELLS/uL
ABSOLUTE SEGMENTED NEUTROPHIL [2]: 725.5 CELLS/uL
BASOPHIL [2]: 0%
EOSINOPHIL [2]: 0.33%
ERYTHROCYTE COUNT [2]: 5.32 x10E6/uL
HEMATOCRIT [2]: 33.53%
HEMOGLOBIN [2]: 13.17 G/DL
LEUKOCYTE COUNT [2]: 8.73 x10E3/uL
LYMPHOCYTE [2]: 90.33%
MEAN CORPUSCULAR HEMOGLOBIN [2]: 24.82 pg
MEAN CORPUSCULAR HEMOGLOBIN CONCENTRATION [2]: 39.33 G/DL
MEAN CORPUSCULAR VOLUME [2]: 63.12 fL
MONOCYTE [2]: 0.67%
NEUTROPHIL [2]: 8.67%
NUCLEATED RED BLOOD CELLS [2]: 0 /100WBC
PLATELET COUNT [2]: 1144.83 x10E3/uL
ALANINE AMINOTRANSFERASE [2]: 60.5 u/L
ALBUMIN [2]: 3.97 G/DL
ALKALINE PHOSPHATASE [2]: 343.17 u/L
ASPARTATE AMINOTRANSFERASE [2]: 80.83 u/L
BLOOD UREA NITROGEN [2]: 15 mg/dL
CARBON DIOXIDE [2]: 31 mmol/L
CHLORIDE [2]: 99.75 MEQ/L
CHOLESTEROL [2]: 71.5 mg/dL
CREATINE PHOSPHOKINASE [2]: 237.17 u/L
CREATININE [2]: 0.17 mg/dL
GLUCOSE [2]: 137 mg/dL
LACTATE DEHYDROGENASE [2]: 146.17 u/L
LIPASE [2]: 11.5 u/L
PHOSPHORUS [2]: 10.13 mg/dL
POTASSIUM [2]: 6 MEQ/L
SODIUM [2]: 145 MEQ/L
TOTAL BILIRUBIN [2]: 0.13 mg/dL
TOTAL PROTEIN [2]: 5.82 G/DL
URIC ACID [2]: 0.62 mg/dL
ABSOLUTE BASOPHIL [3]: 0 CELLS/uL
ABSOLUTE EOSINOPHIL [3]: 0 CELLS/uL
ABSOLUTE LYMPHOCYTE [3]: 2636 CELLS/uL
ABSOLUTE MONOCYTE [3]: 11 CELLS/uL
ABSOLUTE SEGMENTED NEUTROPHIL [3]: 486.33 CELLS/uL
BASOPHIL [3]: 0%
EOSINOPHIL [3]: 0%
ERYTHROCYTE COUNT [3]: 5 x10E6/uL
HEMATOCRIT [3]: 30.93%
HEMOGLOBIN [3]: 12.33 G/DL
LEUKOCYTE COUNT [3]: 3.13 x10E3/uL
LYMPHOCYTE [3]: 83.67%
MEAN CORPUSCULAR HEMOGLOBIN [3]: 24.73 pg
MEAN CORPUSCULAR HEMOGLOBIN CONCENTRATION [3]: 39.87 G/DL
MEAN CORPUSCULAR VOLUME [3]: 61.97 fL
MONOCYTE [3]: 0.33%
NEUTROPHIL [3]: 16%
NUCLEATED RED BLOOD CELLS [3]: 0 /100WBC
PLATELET COUNT [3]: 636 x10E3/uL
ALANINE AMINOTRANSFERASE [3]: 49.33 u/L
ALBUMIN [3]: 4.03 G/DL
ALKALINE PHOSPHATASE [3]: 291 u/L
ASPARTATE AMINOTRANSFERASE [3]: 68 u/L
BLOOD UREA NITROGEN [3]: 15.67 mg/dL
CARBON DIOXIDE [3]: 34 mmol/L
CHLORIDE [3]: 99.5 MEQ/L
CHOLESTEROL [3]: 84.67 mg/dL
CREATINE PHOSPHOKINASE [3]: 160 u/L
CREATININE [3]: 0.13 mg/dL
GLUCOSE [3]: 147 mg/dL
LACTATE DEHYDROGENASE [3]: 134 u/L
LIPASE [3]: 9.67 u/L
PHOSPHORUS [3]: 10.63 mg/dL
POTASSIUM [3]: 5.82 MEQ/L
SODIUM [3]: 144.75 MEQ/L
TOTAL BILIRUBIN [3]: 0.17 mg/dL
TOTAL PROTEIN [3]: 5.77 G/DL
URIC ACID [3]: 0.33 mg/dL
